From paper PMC5513091, “A novel Alzheimer’s disease drug candidate targeting inflammation and fatty acid metabolism” (Alzheimer's Research & Therapy, 2017) come the findings set out here.

Where two headings read alike, the source gives them in different places.

One data set has as its system MC65. In words: Aβ toxicity (intracellular). It counts as cell-based, human. Conditions: read-out: Half-maximal effective concentration, Aβ toxicity (intracellular). The protocol:
The various phenotypic screening assays were conducted as previously described. Briefly, HT-22, primary cortical neurons, or MC65 was plated and exposed to the different environmental stresses. Cells were treated with varying concentrations of CAD-31, and half-maximal effective concentration (EC50) was determined on the basis of cell viability.
• An assay that mimics the dramatic loss of neurotrophic support in the old brain is the trophic factor withdrawal assay. Primary embryonic day 18 cortical cells are plated at low density in serum-free medium. At low density, the cells die within 2 days; they can be rescued by combinations of neurotrophic growth factors, but not by one alone ([19] and unpublished data). […] BDNF is a molecule that is also involved in promoting memory and neurogenesis and is reduced in the brain with age and in AD, as well as in other neurological disorders. BDNF has long been considered a drug target for AD [23]. […] A reduction in GSH is a common denominator of old age and essentially all chronic central nervous system (CNS) diseases. J147 and CAD-31 both effectively reduce oxidative stress, with EC50 of 6 nM and 20 nM, respectively. • CAD-31 also prevents loss of energy metabolism that leads to neuron cell death in an in vitro ischemia model. […] Intracellular Aβ toxicity was assayed in the human neuron cell line MC65 that conditionally expresses the C99 fragment of the amyloid precursor protein. When the cells are induced to make Aβ, the cells die within 4 days. Both J147 and CAD-31 block this toxicity at around 10 nM. Therefore, CAD-31 has a repertoire of neuroprotective activities similar but not identical to that of its parent compound, J147.

A short description of a further data set: Pharmacokinetics in rats. It counts as in vivo, Sprague-Dawley rats. The protocol: Sprague-Dawley rats had free access to food and water. CAD-31 was given by gavage to rats at 20 mg/kg in corn oil and intravenously in 15% HS 15/PBS. Whole-blood samples were collected from the jugular vein at every time point and brain collected after 20-ml saline perfusion. CAD-31 was extracted with acetonitrile and compared with standards on a TSQ Quantiva™ Triple Quadrupole Mass Spectrometer (Thermo Scientific, Waltham, MA, USA). For the mouse feeding studies, mice had free access to food containing 200 ppm CAD-31. Blood was collected by heart puncture, and the brain concentration was determined as with rats.

In the next data set the target is CYP 3A4 (Homo sapiens, UniProt P08684). The data set can be described thus: CYP inhibition. It counts as in vitro ADME.
The test system of a further data set is APPswe/PS1∆E9 mice. The data set can be described thus: Elevated plus maze. Particulars: AD mice fed 200 ppm in chow for 3 months from 10 months of age. It is filed as in vivo. As to the method:
The APPswe/PS1∆E9-transgenic mice were characterized previously. Line 85 mice carry two transgenes, the mouse/human chimeric APPswe, linked to Swedish familial AD and human PS1∆E9. At 10 months of age, female transgenic mice were fed a defined diet (Harlan Teklad; Envigo, Indianapolis, IN, USA) with and without CAD-31 (200 ppm, approximately 10 mg/kg/day). Treatment continued for 3 months, followed by behavior testing and tissue harvesting.
The elevated plus maze is used to analyze the anxiety response of mice. This test relies upon the tendency of mice to have a fear of heights and to navigate toward dark, enclosed spaces and remain there. Our maze is made of gray plastic and consists of four arms (two open without walls and two enclosed by 15.25-cm-high walls) that are 30 cm long and 5 cm wide in the shape of a plus sign. A video tracking system (EthoVision; Noldus Information Technology) is used to automatically collect behavioral data. Mice are habituated to the room 24 h before testing. Mice are also habituated to the maze for 2 minutes before testing by placing them in the center of the maze and blocking entry to the arms. Mice were tested in the maze for a 5-minute period. The anxiety of mice was measured by comparing the time spent in the open arms with time spent in the closed arms. Statistics were computed using GraphPad InStat software.

The test system of another data set is Aβ1–42. The data set can be described thus: Aβ enzyme-linked immunosorbent assay. It is filed as in vivo, mice. As to the method: Hippocampal tissue samples were homogenized in 10 volumes of radioimmunoprecipitation assay (RIPA) lysis buffer (50 mM Tris, pH 7.5, 150 mM NaCl, 0.1% SDS, 0.5% deoxycholate, and 1% Nonidet P-40) containing a cocktail of protease and phosphatase inhibitors [[…] each of pepstatin A, aprotinin, phosphoramidon, and leupeptin; 0.5 mM 4-(2-aminoethyl)benzenesulfonyl fluoride hydrochloride; 1 mM ethylene glycol-bis(β-aminoethyl ether)-N,N,N′,N′-tetraacetic acid; 5 mM fenvalerate; and 5 mM cantharidin]. Samples were sonicated (2 × 10 seconds) and centrifuged first at 10,000 × g for 10 minutes and then at 100,000 × g for 60 minutes at 4 °C. The 100,000 × g pellet was taken up either in 6 M guanidine for Aβ analysis or in SDS sample buffer for Western blot analysis. Protein concentrations in the cell extracts were determined using a bicinchoninic acid protein assay (Pierce Biotechnology, Rockford, IL, USA). Equal amounts of protein were solubilized in 2.5× SDS sample buffer, separated on 12% SDS-polyacrylamide gels, transferred to Immobilon-P (EMD Millipore, Billerica, MA, USA), and immunoblotted with the antibodies indicated in the Materials subsection above. For Western blot experiments, protein levels were normalized to actin levels. An unpaired t test was performed to compare two groups at a single time point. When comparing multiple groups, one-way analysis of variance (ANOVA) followed by Tukey’s post hoc test was used. All statistical analysis was conducted using GraphPad InStat software.
Aβ1–42 levels in hippocampal lysate were analyzed using Aβ1–42 enzyme-linked immunosorbent assay kits from Invitrogen (catalogue number KHB3442). All kit reagents were brought to room temperature before use. […] A quantity of 50 μl of Aβ peptide standards and samples was added in duplicate to 96-well plates precoated with antibody to the NH2-terminal region of Aβ. […] Stop solution was then added at 100 μl to each well, followed by reading the absorbance of each well at 450 nm. […] The concentrations of the samples were calculated from the standard curve and multiplied by the dilution factor.

Setting [1] is: brain of CAD-31 treated hAPPswe/PS1ΔE9 mice (AD+31).

Chain of CYP 3A4 (P08684 whole entry): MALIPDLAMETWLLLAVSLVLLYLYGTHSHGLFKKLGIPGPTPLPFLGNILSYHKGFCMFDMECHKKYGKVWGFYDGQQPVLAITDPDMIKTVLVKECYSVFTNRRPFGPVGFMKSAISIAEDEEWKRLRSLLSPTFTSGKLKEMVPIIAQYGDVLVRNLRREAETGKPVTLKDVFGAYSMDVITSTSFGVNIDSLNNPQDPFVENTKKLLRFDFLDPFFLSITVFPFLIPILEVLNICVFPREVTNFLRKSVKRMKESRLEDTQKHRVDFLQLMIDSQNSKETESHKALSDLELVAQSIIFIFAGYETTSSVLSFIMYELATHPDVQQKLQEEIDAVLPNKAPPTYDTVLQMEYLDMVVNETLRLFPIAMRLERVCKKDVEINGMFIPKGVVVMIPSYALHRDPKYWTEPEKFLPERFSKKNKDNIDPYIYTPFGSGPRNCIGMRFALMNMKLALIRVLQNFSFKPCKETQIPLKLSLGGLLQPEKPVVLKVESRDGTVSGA

By half-life is commonly meant the time needed for the level to fall by half in the phase considered. A low value points to fast loss. The term bioavailability denotes the share of a dose that reaches the circulation, judged against a reference dose that is usually intravenous. A high value points to much systemic uptake. As to `Cc1ccc(N(/N=C/c2cccc(OC(F)(F)F)c2)C(=O)C(F)(F)F)c(C)c1` [CAD-31], the EC50 in the data set on MC65 (Homo sapiens, MC65, MC65) was around 0.01 µM. The EC50 in the data set on MC65 (MC65) was 0.012 µM. Besides, in “Pharmacokinetics in rats” (20 mg/kg by gavage in corn oil), the “PO Max Brain, concentration” value was 3.0 µM; the “PO Max Brain, time” value was 8 h; the “PO Max Plasma, concentration” value turned out to be 1.7 µM; the “PO Max Plasma, time” value is 8 h. Moreover, the Kp at 8 h in “Pharmacokinetics in rats” (Sprague-Dawley, rat, brain and plasma, po, 20 mg/kg by gavage, at 8 h, read-out: brain-to-plasma ratio) came out at 2.8. The half-life in the data set “Pharmacokinetics in rats” (Sprague-Dawley, rat, in vivo, 20 mg/kg) is 4.3 h. The bioavailability in the data set “Pharmacokinetics in rats” (Sprague-Dawley, rat, plasma, oral, 20 mg/kg) turned out to be 31%. On CYP 3A4, the EC50 at 10 µM was above 10 µM. Also, the “time spent on the open arm (disinhibition phenotype)” value with APPswe/PS1∆E9 mice is “completely rescued to age-matched WT levels”. Besides, in the data set with Aβ1–42 (setting [1]), the “RIPA Insoluble Aβ1-42” value was 4581 ± 489.3 pg/mg protein and the “RIPA Soluble Aβ1-42” value came to 16.57 ± 3.359 pg/mg protein. Also, the “levels of soluble or insoluble Aβ1–42” value in the data set with Aβ1–42 (therapeutic paradigm, AD mice) is “did not reduce the levels of either soluble or insoluble Aβ1–42”.
